Results: US7893063B2, “2,4,6-trisubstituted pyrimidines as phosphotidylinositol (PI) 3-kinase inhibitors and their use in the treatment of cancer” (AstraZeneca AB, priority 2004, dated 2011)

Key:
[1] = system: phosphorylation of Serine 473 in Akt; test: In vitro phospho-Ser473 Akt assay, Test (b); format: cell-based; settings: Homo sapiens, MDA-MB-468 cells, 2 hours incubation, read-out: IC50, inhibition of phosphorylation of Serine 473 in Akt
Description: (b) In Vitro Phospho-Ser473 Akt Assay
This assay determines the ability of test compounds to inhibit phosphorylation of Serine 473 in Akt as assessed using Acumen Explorer technology (Acumen Bioscience Limited), a plate reader that can be used to rapidly quantitate features of images generated by laser-scanning.
A MDA-MB-468 human breast adenocarcinoma cell line (LGC Promochem, Teddington, Middlesex, UK, Catalogue No. HTB-132) was routinely maintained at 37° C. with 5% CO2 up to a confluency of 70-90% in Dulbecco's modified Eagle's growth medium (DMEM; Invitrogen Limited, Paisley, UK Catalogue No. 41966-029) containing 10% heat-inactivated foetal calf serum (FCS; Sigma, Poole, Dorset, UK, Catalogue No. F0392) and 1% L-glutamine (Gibco, Catalogue No. 25030-024).
For the assay, the cells were detached from the culture flask using ‘Accutase’ (Innovative Cell Technologies Inc., San Diego, Calif., USA; Catalogue No. AT104) using standard tissue culture methods and resuspended in media to give 1.7×10^5 cells per ml. Aliquots (90 μl) were seeded into each of the inner 60 wells of a black Packard 96 well plate (PerkinElmer, Boston, Mass., USA; Catalogue No. 6005182) to give a density of ˜15000 cells per well. Aliquots (90 μl) of culture media were placed in the outer wells to prevent edge effects. The cells were incubated overnight at 37° C. with 5% CO2 to allow them to adhere.
On day 2, the cells were treated with test compounds and incubated for 2 hours at 37° C. with 5% CO2. Test compounds were prepared as 10 mM stock solutions in DMSO and serially diluted as required with growth media to give a range of concentrations that were 10-fold the required final test concentrations. Aliquots (10 μl) of each compound dilution were placed in a well (in triplicate) to give the final required concentrations. […]
All subsequent aspiration and wash steps were carried out using a Tecan 96 well plate washer (aspiration speed 10 mm/sec). […] An aliquot of PBS (50 μl) was added to each well and the plates were sealed with black plate sealers and the fluorescence signal was detected and analysed. […]

p110α Type Ia human PI3K = target: T1, p110α Type Ia human PI3K (Homo sapiens, UniProt P42336); test: In vitro enzyme assay (AlphaScreen), Test (a); format: biochemical; settings: recombinant enzyme, PI(4,5)P2 substrate, ATP 4 μM, read-out: IC50 versus p110α Type Ia human PI3K
T1 construct: full length DNA of each of the p110α, p110β and p110δ Type Ia human PI3K p110 isoforms; 6-His; made in house; Grp1 PH domain in E. coli
Excerpt: (a) In Vitro Enzyme Assay
The assay used AlphaScreen technology (Gray et al., Analytical Biochemistry, 2003, 313: 234-245) to determine the ability of test compounds to inhibit phosphorylation by recombinant Type I PI3K enzymes of the lipid PI(4,5)P2.
DNA fragments encoding human PI3K catalytic and regulatory subunits were isolated from cDNA libraries using standard molecular biology and PCR cloning techniques. The selected DNA fragments were used to generate baculovirus expression vectors. In particular, full length DNA of each of the p110α, p110β and p110δ Type Ia human PI3K p110 isoforms (EMBL Accession Nos. HSU79143, S67334, Y10055 for p110α, p110β and p110δ respectively) were sub-cloned into a pDEST10 vector (Invitrogen Limited, Fountain drive, Paisley, UK). The vector is a Gateway-adapted version of Fastbac1 containing a 6-His epitope tag. A truncated form of Type Ib human PI3K p110γ isoform corresponding to amino acid residues 144-1102 (EMBL Accession No. X8336A) and the full length human p85α regulatory subunit (EMBL Accession No. HSP13KIN) were also sub-cloned into pFastBac1 vector containing a 6-His epitope tag. The Type Ia p110 constructs were co-expressed with the p85α regulatory subunit. Following expression in the baculovirus system using standard baculovirus expression techniques, expressed proteins were purified using the His epitope tag using standard purification techniques.
DNA corresponding to amino acids 263 to 380 of human Grp1 PH domain was isolated from a cDNA library using standard molecular biology and PCR cloning techniques. The resultant DNA fragment was sub-cloned into a pGEX 4T1 E. coli expression vector containing a GST epitope tag (Amersham Pharmacia Biotech, Rainham, Essex, UK) as described by Gray et al., Analytical Biochemistry, 2003, 313: 234-245). The GST-tagged Grp1 PH domain was expressed and purified using standard techniques.
Test compounds were prepared as 10 mM stock solutions in DMSO and diluted into water as required to give a range of final assay concentrations. Aliquots (2 μl) of each compound dilution were placed into a well of a Greiner 384-well low volume (LV) white polystyrene plate (Greiner Bio-one, Brunel Way, Stonehouse, Gloucestershire, UK Catalogue No. 784075). […]
Biotinylated-DiC8-PI(3,4,5)P3 (50 nM; Cell Signals Inc., Catalogue No. 107), recombinant purified GST-Grp1 PH protein (2.5 nM) and AlphaScreen Anti-GST donor and acceptor beads (100 ng; Packard Bioscience Limited, Station Road, Pangbourne, Berkshire, UK, Catalogue No. 6760603M) were added and the assay plates were left for about 5 to 20 hours at ambient temperature in the dark. The resultant signals arising from laser light excitation at 680 nm were read using a Packard AlphaQuest instrument. […]

T1 sequence (P42336 whole entry, the tested form may be a part, canonical isoform): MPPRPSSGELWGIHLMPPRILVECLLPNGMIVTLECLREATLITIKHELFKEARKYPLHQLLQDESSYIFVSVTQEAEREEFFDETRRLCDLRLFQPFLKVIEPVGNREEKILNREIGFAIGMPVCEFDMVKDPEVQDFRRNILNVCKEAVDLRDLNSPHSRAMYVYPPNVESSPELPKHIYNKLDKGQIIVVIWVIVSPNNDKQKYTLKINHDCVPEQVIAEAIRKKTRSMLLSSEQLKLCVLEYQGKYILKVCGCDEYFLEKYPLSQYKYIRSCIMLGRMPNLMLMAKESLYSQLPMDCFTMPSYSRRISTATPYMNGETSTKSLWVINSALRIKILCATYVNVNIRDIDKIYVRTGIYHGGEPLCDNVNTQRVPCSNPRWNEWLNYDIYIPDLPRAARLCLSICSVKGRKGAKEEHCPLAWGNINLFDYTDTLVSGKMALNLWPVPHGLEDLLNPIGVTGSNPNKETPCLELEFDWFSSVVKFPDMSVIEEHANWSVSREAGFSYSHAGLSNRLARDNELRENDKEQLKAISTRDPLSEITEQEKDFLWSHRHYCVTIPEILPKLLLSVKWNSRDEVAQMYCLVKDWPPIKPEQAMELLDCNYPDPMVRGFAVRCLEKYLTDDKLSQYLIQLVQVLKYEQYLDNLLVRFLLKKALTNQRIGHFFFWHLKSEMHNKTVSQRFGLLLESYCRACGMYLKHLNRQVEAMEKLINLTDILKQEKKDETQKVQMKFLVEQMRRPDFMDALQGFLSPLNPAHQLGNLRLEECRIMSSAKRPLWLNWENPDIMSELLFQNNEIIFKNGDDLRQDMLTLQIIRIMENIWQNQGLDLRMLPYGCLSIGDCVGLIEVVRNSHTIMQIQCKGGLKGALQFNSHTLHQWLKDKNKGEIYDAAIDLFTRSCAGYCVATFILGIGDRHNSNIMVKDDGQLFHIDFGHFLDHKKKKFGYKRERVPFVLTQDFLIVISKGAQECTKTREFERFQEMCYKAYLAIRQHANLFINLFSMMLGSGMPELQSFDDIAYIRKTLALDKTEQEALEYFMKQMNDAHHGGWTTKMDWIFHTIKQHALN
T1 sequence (P27986 whole entry partner, the tested form may be a part, canonical isoform): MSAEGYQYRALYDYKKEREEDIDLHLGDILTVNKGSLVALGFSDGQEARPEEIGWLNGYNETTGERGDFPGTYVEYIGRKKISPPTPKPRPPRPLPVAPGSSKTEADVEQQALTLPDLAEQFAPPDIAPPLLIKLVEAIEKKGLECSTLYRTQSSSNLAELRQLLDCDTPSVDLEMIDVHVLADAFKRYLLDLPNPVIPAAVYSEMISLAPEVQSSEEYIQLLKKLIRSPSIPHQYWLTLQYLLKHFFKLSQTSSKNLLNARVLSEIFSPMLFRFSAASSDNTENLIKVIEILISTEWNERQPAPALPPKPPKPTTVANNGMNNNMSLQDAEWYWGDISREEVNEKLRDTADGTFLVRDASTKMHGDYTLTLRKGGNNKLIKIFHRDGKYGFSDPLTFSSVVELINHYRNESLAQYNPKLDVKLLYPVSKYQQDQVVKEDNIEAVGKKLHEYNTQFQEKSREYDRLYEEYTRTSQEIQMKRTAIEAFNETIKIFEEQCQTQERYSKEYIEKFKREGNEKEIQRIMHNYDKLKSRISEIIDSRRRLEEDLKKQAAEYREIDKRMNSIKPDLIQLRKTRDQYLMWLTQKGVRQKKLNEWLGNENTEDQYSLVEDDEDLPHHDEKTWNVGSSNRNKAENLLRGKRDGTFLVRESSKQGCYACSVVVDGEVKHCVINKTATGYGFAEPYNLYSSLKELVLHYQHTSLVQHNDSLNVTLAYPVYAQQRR

O=C(Nc1cccc(-c2nc(-c3ccc(CO)o3)cc(N3CCOCC3)n2)c1)C1CCNCC1 [Example 5, 4-(5-hydroxymethylfuran-2-yl)-6-morpholino-2-(3-piperidin-4-ylcarbonylaminophenyl)pyrimidine]
IC50 [1]: ~1 µM | IC50 (p110α Type Ia human PI3K): ~0.5 µM

COc1ncc(-c2cc(N3CCOCC3)nc(-c3cccc(NC(C)=O)c3)n2)cn1 [Example 2, 2-(3-acetamidophenyl)-4-(2-methoxypyrimidin-5-yl)-6-morpholinopyrimidine]
IC50 [1]: ~28 µM | IC50 (p110α Type Ia human PI3K): ~12 µM

O=C(Nc1cccc(-c2nc(-c3ccc(CO)s3)cc(N3CCOCC3)n2)c1)C1CCNCC1 [Example 1, 4-(5-hydroxymethylthien-2-yl)-6-morpholino-2-(3-piperidin-4-ylcarbonylaminophenyl)pyrimidine]
IC50 [1]: ~50 µM | IC50 (p110α Type Ia human PI3K): ~10 µM

O=C(Nc1cccc(-c2cc(N3CCOCC3)nc(-c3ccc(CO)o3)n2)c1)C1CCCNC1 (stereo not shown) [Example 4, 2-(5-hydroxymethylfuran-2-yl)-6-morpholino-4-(3-piperidin-3-ylcarbonylaminophenyl)pyrimidine]
IC50 (p110α Type Ia human PI3K): ~0.6 µM
